What was measured:
Assay in all cases: relative viability (nuclei count vs DMSO), 5 days (fraction); higher = more cells survive
[1] = compound: CC(C)(C)c1nc(-c2cccc(NS(=O)(=O)c3c(F)cccc3F)c2F)c(-c2ccnc(N)n2)s1 [Dabrafenib] + C[C@@H](Oc1cc(-c2cnn(C3CCNCC3)c2)cnc1N)c1c(Cl)ccc(F)c1Cl [Crizotinib] (partner 1 µM)
Procedure, shortened: (§1)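 For relative viability, nuclei counts in treated wells were divided by those in vehicle wells. Lung cancer cell lines had been pin-tool dosed in 1536-well plates the day after seeding and cultured for 5 days, then fixed and stained in one step (final 0.05% Triton X-100, 1% formaldehyde, 1 ug/ml Hoechst) and imaged at 4×. Doses were one drug alone or a fixed anchor-drug dose plus five library-drug doses (not always all listed) in √10 steps, and values are duplicate-plate medians.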

[2] = compound: NC(=O)c1ccc(N(C(N)=O)c2c(F)cccc2F)nc1-c1ccc(F)cc1F [VX-702] + COc1cccc2cc(-c3nc([C@H]4CC[C@H](C(=O)O)CC4)n4ncnc(N)c34)[nH]c12 [OSI-027] (partner 0.5 µM)
Procedure, shortened: as §1

[3] = compound: CC(C)(C)c1nc(-c2cccc(NS(=O)(=O)c3c(F)cccc3F)c2F)c(-c2ccnc(N)n2)s1 [Dabrafenib] + Nc1ncn([C@H]2C[C@H](O)[C@@H](CO)O2)c(=O)n1 [Decitabine] (partner 2 µM)
Procedure, shortened: as §1

[4] = compound: CC(C)(C)c1nc(-c2cccc(NS(=O)(=O)c3c(F)cccc3F)c2F)c(-c2ccnc(N)n2)s1 [Dabrafenib] + COc1cccc2cc(-c3nc([C@H]4CC[C@H](C(=O)O)CC4)n4ncnc(N)c34)[nH]c12 [OSI-027] (partner 0.5 µM)
Procedure, shortened: as §1

Cell Line	relative viability ([1]; first compound 0.009487 µM)	relative viability ([1]; first compound 0.09487 µM)	relative viability ([1]; first compound 0.3 µM)	relative viability ([2]; first compound 0.02 µM)	relative viability ([2]; first compound 0.2 µM)	relative viability ([2]; first compound 0.6325 µM)	relative viability ([2]; first compound 2 µM)	relative viability ([3]; first compound 0.009487 µM)	relative viability ([3]; first compound 0.09487 µM)	relative viability ([3]; first compound 0.3 µM)	relative viability ([4]; first compound 0.009487 µM)	relative viability ([4]; first compound 0.03 µM)	relative viability ([4]; first compound 0.09487 µM)	relative viability ([4]; first compound 0.3 µM)	relative viability ([1]; first compound 0.03 µM)	relative viability ([3]; first compound 0.003 µM)	relative viability ([3]; first compound 0.03 µM)	relative viability ([4]; first compound 0.003 µM)	relative viability ([1]; first compound 0.003 µM)
NCI-H322M	1.09	0.876	0.941	0.567	0.517	0.566	0.62	0.72	0.656	0.737	0.545	0.503	0.515	0.448	–	–	–	–	–
HCC-366	0.542	0.44	0.572	1.09	0.899	0.932	0.107	0.33	0.364	0.176	0.988	0.501	0.773	1.08	0.436	0.392	0.404	0.109	–
NCI-H1355	1.05	–	1.03	0.419	0.427	0.371	0.405	0.331	0.37	0.317	0.477	0.34	0.416	0.44	0.927	–	0.381	–	–
LC-2-ad	0.398	0.426	0.447	0.844	0.814	0.999	0.949	0.753	0.771	0.689	1.14	0.83	0.76	0.859	0.389	0.749	0.776	–	0.42
NCI-H2087	0.788	0.736	0.675	0.55	0.471	0.48	0.497	0.305	0.278	0.213	0.541	0.682	0.622	0.454	0.715	–	0.352	–	0.821
BEN	0.985	0.749	1.09	0.31	0.298	0.315	0.328	0.865	0.721	0.656	0.332	–	0.305	0.269	–	–	–	–	–
NCI-H2228	0.504	0.495	0.571	0.649	0.514	0.534	0.683	–	–	–	0.668	0.554	0.52	0.607	0.52	–	–	–	0.457
HCC-827	0.945	0.696	0.942	0.828	0.839	0.688	0.273	0.347	–	0.283	0.955	0.744	–	0.657	0.864	0.267	0.33	0.586	0.873
IA-LM	0.756	0.628	0.46	–	–	–	–	–	–	–	–	–	–	–	0.702	–	–	–	1.01
NCI-H522	–	–	–	0.649	0.718	0.681	0.747	0.675	0.755	0.666	0.761	0.642	0.714	0.757	–	–	0.64	–	–
H3255	1.19	0.873	0.906	0.666	0.684	0.541	0.63	0.704	0.625	0.649	0.579	0.62	0.56	0.583	0.954	0.539	0.585	0.572	0.968
CAL-12T	0.752	0.582	0.791	0.624	0.715	0.661	0.506	–	–	–	0.68	0.902	0.566	0.645	0.728	–	–	0.523	0.502
NCI-H1623	–	–	–	0.403	0.406	0.424	0.43	–	–	–	0.46	0.441	0.425	0.489	–	–	–	–	–
NCI-H1395	–	–	–	0.725	0.642	0.663	0.677	0.726	0.696	0.66	0.692	0.594	0.583	0.589	–	–	0.738	0.377	–
Calu-6	0.833	0.555	0.577	–	–	–	–	–	–	–	–	–	–	–	0.786	–	–	–	0.681
NCI-H2342	–	–	–	0.632	0.651	0.644	0.692	0.723	0.781	0.774	0.548	0.504	0.715	0.737	–	0.748	0.657	0.532	–
A549	0.763	0.737	0.768	–	–	–	–	0.277	0.212	0.0722	–	–	–	–	0.887	–	0.201	–	0.805
NCI-H1563	0.933	0.908	0.953	0.77	0.748	0.738	0.722	–	–	–	0.742	0.675	0.791	0.676	0.868	–	–	0.732	0.865
NCI-H1299	0.91	0.882	0.806	–	–	–	–	–	–	–	–	–	–	–	0.961	–	–	–	1.01
NCI-H1648	–	–	–	0.278	0.275	0.251	0.253	0.463	0.372	0.495	0.249	0.298	0.244	0.209	–	0.599	–	0.225	–
NCI-H1793	–	–	–	0.292	0.217	0.235	0.218	0.531	0.521	0.418	0.393	–	–	0.309	–	–	–	–	–
NCI-H1703	0.76	0.609	0.729	–	–	–	–	–	–	–	–	–	–	–	0.584	–	–	–	1.09
EBC-1	0.193	0.196	0.245	–	–	–	–	–	–	–	–	–	–	–	0.207	–	–	–	–
